Results from patent US9073858B2, “Methods of targeted drug development” (priority 2010, dated 2015).
Several values for one entry are separate records, joined by “and”; a condition that tells them apart may be missing. Equal entries are not always repeated. Where two headings read alike, the source gives them in different places.

Columns and labels:
[1] = Stability on incubation with mouse liver microsomes (MLM); assay type: in vitro ADME; conditions: percentage left after incubation with mouse liver microsomes for 30 minutes
Protocol: (§1) Stability of hydroxyquinoline analogs were determined (see e.g., TABLE 18). MLM represents the percentage left after incubation with mouse liver microsomes for 30 minutes. HLM represents the percentage left after incubation with human liver microsomes for 30 minutes.
(§2) Stability of analogs having a benzaldehyde derived ring were determined (see e.g., TABLE 18). MLM represents the percentage left after incubation with mouse liver microsomes for 30 minutes. HLM represents the percentage left after incubation with human liver microsomes for 30 minutes.

[2] = Stability on incubation with human liver microsomes (HLM); assay type: in vitro ADME; conditions: percentage left after incubation with human liver microsomes for 30 minutes
Protocol: as §1, §2

[3] = tested on: A549 cells; test: A549 Cell Proliferation Assay (MTT); assay type: cell-based; conditions: Homo sapiens
Protocol: Cell proliferation is determined using the MTT assay. The MTT cell proliferation assay is a colorimetric assay system which measures the reduction of a tetrazolium component (MTT) into an insoluble formazan product by the mitochondria of viable cells. After incubation of the cells with the MTT reagent, DMSO is added to solubilize the colored crystals and the samples read at a wavelength of 560 nm. The amount of color produced is directly proportional to the number of viable cells. […] L11939) was prepared at 5 mg/ml in PBS. […] Plates were read on the PolarStar plate reader at 560 nm. […] IC50 values were calculated in GraphPad Prism using non-linear regression curve fitting. All statistical analyses was done either in GraphPad Prism or Microsoft Excel. […] Briefly, compounds are added to cells plated in 96-well plates. The cells are allowed to grow for 72 hours before MTT treatment. The effect of the compounds on cell proliferation is analyzed using GraphPad Prism. A549 cells are a non-small cell lung cancer cell line that have wild type EGFR and p53 but have point mutations in KRAS gene which transform it into an oncogene. […] SH30071.03, lot no. ATB31500), 1% Pen Strep (Gibco, cat no. […] On day 2, working solutions of compounds at 200× were prepared. […] Plates were incubated for 72 hours before analyzing them with MTT (as described above).

[4] = tested on: H1975 cells; test: H1975 Cell Proliferation Assay (MTT); assay type: cell-based; conditions: Homo sapiens, NCI-H1975, 72 h, read-out: IC50 Value (μM) H1975 Cells
Protocol: (§3) Cell proliferation is determined using the MTT assay. The MTT cell proliferation assay is a colorimetric assay system which measures the reduction of a tetrazolium component (MTT) into an insoluble formazan product by the mitochondria of viable cells. After incubation of the cells with the MTT reagent, DMSO is added to solubilize the colored crystals and the samples read at a wavelength of 560 nm. The amount of color produced is directly proportional to the number of viable cells.
(§4) 3-(4,5-Dimethylthiazol-2-yl)-2,5-diphenyltetrazolium Bromide (MTT) dye (Aesar, cat no. L11939) was prepared at 5 mg/ml in PBS. To each well, 20 μl of MTT solution was added to existing media and mixed thoroughly with 5 mins of gentle shaking at room temperature. Plates were incubated at 37° C., 5% CO2 for approximately 2 hrs. After 2-3 hrs incubation, media was aspirated out and plates were patted dry. […] Plates were incubated at 37° C., 5% CO2 for 10 min and mix thoroughly with 5 mins of gentle shaking at room temperature. Plates were read on the PolarStar plate reader at 560 nm. Percent (%) inhibition was calculated as 100%−(OD560 nm experimental-blank)×100%/OD560 nm control-blank. Blank=wells+serum free media+0.5% DMSO. Experimental=wells+cells+treatment+0.5% DMSO. Control=wells+cells+0.5% DMSO. IC50 values were calculated in GraphPad Prism using non-linear regression curve fitting. All statistical analyses was done either in GraphPad Prism or Microsoft Excel.
Briefly, compounds are added to cells plated in 96-well plates. The cells are allowed to grow for 72 hours before MTT treatment. The effect of the compounds on cell proliferation is analyzed using GraphPad Prism.

[5] = tested on: HT-29 cells; test: HT-29 Cell Proliferation Assay (MTT); assay type: cell-based
Protocol: as §3, §4
Briefly, compounds are added to cells plated in 96-well plates. […] The effect of the compounds on cell proliferation is analyzed using GraphPad Prism.
HT-29 cells are a colon cancer cell line that is utilized to assess the ability of compounds to inhibit the proliferation of cells in tumors of the colon.
For the HT-29 cell proliferation assay, on day 1, HT-29 cells are seeded at 3,000 cells/well in 100 μl media containing 10% FBS, 1× Pen-Strep, and 1× L-Glutamine in 96 well, tissue culture-treated plates. […] Working solutions of compounds were prepared (at […] in 100% DMSO). To 200 μl media, 20 μl of a 5× compound (diluted in plain media) was added for a final DMSO concentration of 0.5%. […] On day 5, plates were analyzed for cell growth using the MTT assay.

[6] = A549, 72 h, read-out: IC50 Value (μM) A549 Cells
[7] = Homo sapiens, HT-29, 72 h, read-out: IC50 Value (μM) HT-29 Cells
[8] = A549, read-out: IC50, cell proliferation in A549 or H1975 cells

Row | SMILES | MLM % Remaining@ 30 Min [1] [%] | HLM % Remaining@ 30 Min [2] [%] | IC50 [3, 6] [µM] | IC50 [4] [µM] | IC50 [5, 7] [µM] | also measured
1 | Cc1cc(NC(c2ccc(C(F)(F)F)c(F)c2)c2ccc3cccnc3c2O)ncc1Cl (stereo not drawn) [AD4-13106] | 42 | 86 | – | – | – | –
2 | Cc1cc(NC(c2cccc(C(F)(F)F)c2)c2ccc3cccnc3c2O)ncc1Cl (stereo not drawn) [AD4-13107] | 28 | 83 | – | – | – | –
3 | Cc1cc(NC(c2cc(Cl)cc(Cl)c2)c2ccc3cccnc3c2O)ncc1F (stereo not drawn) [AD4-13114] | 40 | 99 | – | – | – | –
4 | Cc1cc(Cl)cnc1NC(c1ccc(Cl)c(Cl)c1)c1ccc2cccnc2c1O (stereo not drawn) [AD4-13119] | – | – | 0.18 | 0.12 | 1.5 | –
5 | Cc1cc(NC(c2ccc(C(F)(F)F)cc2)c2ccc3cccnc3c2O)ncc1Cl (stereo not drawn) [AD4-13121] | – | – | 0.18 | 0.33 | 1.8 | –
6 | Cc1cc(NC(c2cc(Cl)cc(Cl)c2)c2ccc3cccnc3c2O)ncc1Cl (stereo not drawn) [AD4-13122] | 60 | 94 | – | – | – | –
7 | Cc1cc(NC(c2ccc(Cl)cc2Cl)c2ccc3cccnc3c2O)ncc1Cl (stereo not drawn) [AD4-13123] | 30 | 84 | 0.12 | 0.36 | – | –
8 | Cc1cc(NC(c2ccc(C(F)(F)F)cc2C(F)(F)F)c2ccc3cccnc3c2O)ncc1Cl (stereo not drawn) [AD4-13124] | – | – | 0.1 | 0.97 | 1.5 | IC50 [3, 8]: ≤ 0.1 µM
9 | Cc1cc(Cl)cnc1NC(c1ccc2cccnc2c1O)c1c(F)cccc1Cl (stereo not drawn) [AD4-13135] | – | – | 0.18 | 0.21 | 0.79 | –
10 | Oc1c(C(Nc2ncc(F)cc2F)c2c(Cl)cccc2Cl)ccc2cccnc12 (stereo not drawn) [AD4-13138] | – | – | 0.17 | 0.3 | 1.1 | –
11 | Cc1cc(NC(c2ccc(Cl)c(Cl)c2)c2ccc3cccnc3c2O)ncc1Cl (stereo not drawn) [AD4-13166] | 71 | 100 | – | – | – | –
12 | Cc1ccc2ccc(C(Nc3ncc(Cl)cc3C)c3ccc(Cl)cc3Cl)c(O)c2n1 (stereo not drawn) [AD4-13200] | 67 | 94 | – | – | – | –
13 | Cc1nc(NC(c2ccc(Cl)c(Cl)c2)c2ccc3cccnc3c2O)c(Cl)cc1Cl (stereo not drawn) [AD4-13202] | 97 | 100 | – | – | – | –
14 | Cc1nc(NC(c2cc(Cl)cc(Cl)c2Cl)c2ccc3cccnc3c2O)c(Cl)cc1Cl (stereo not drawn) [AD4-13213] | – | – | 0.16 | – | 5.4 | –
15 | COc1cc(Cl)cnc1NC(c1cc(Cl)cc(Cl)c1)c1ccc2cccnc2c1O (stereo not drawn) [AD4-13216] | – | – | 0.12 | – | 1.6 | –
16 | CCc1cc(Cl)cnc1NC(c1ccc(Cl)cc1Cl)c1ccc2cccnc2c1O (stereo not drawn) [AD4-13217] | – | – | 0.12 | – | 0.96 | –
17 | CCc1c(Cl)cnc(NC(c2ccc(Cl)cc2Cl)c2ccc3cccnc3c2O)c1F (stereo not drawn) [AD4-13218] | – | – | 0.086 | – | 0.92 | IC50 [3, 8]: ≤ 0.1 µM
18 | Cc1nc(NC(c2cc(Cl)cc(Cl)c2)c2ccc3cccnc3c2O)c(Cl)cc1Cl (stereo not drawn) [AD4-13223] | – | – | 0.11 | – | 2.5 | –
19 | CS(=O)(=O)CCNCc1ccc(-c2ccc3ncnc(Nc4ccc(OCc5cccc(F)c5)c(Cl)c4)c3c2)o1 [Tykerb, reference compound] | – | – | – | – | – | IC50 ([5]; Homo sapiens, HT-29, 48 h, read-out: IC50, Comparison of Incubation Times in HT-29 Cell Proliferation Assay): 2.7 µM; IC50 ([5]; Homo sapiens, HT-29, 72 h, read-out: IC50, Comparison of Incubation Times in HT-29 Cell Proliferation Assay): 2.3 µM; IC50 ([5]; Homo sapiens, HT-29, read-out: HT-29 Cell Proliferation Assay Results (IC50)): 5 µM; IC50 ([5]; Homo sapiens, HT-29, read-out: IC50 from dose-response curves of FIG. 11, HT-29 cells): 2.7 µM; IC50 ([5]; read-out: HT-29 Cell Proliferation Assay Results (IC50)): 5.1 µM and 8.5 µM and 9.2 µM; IC50 ([5]; read-out: IC50, Comparison of Incubation Times in HT-29 Cell Proliferation Assay): 4.4 µM and 4.2 µM
